Data on 35 compounds can be found in patent US12582641B2, “Sulfur-containing compound based on glutarimide skeleton and application thereof” (SHANGHAITECH UNIVERSITY, priority 2019, dated 2026).

The test system of the test is MM.1S cells. Kind of test: Proliferation inhibition (IC50) in MM.1S cells, cell viability assay. As to conditions: Homo sapiens, MM1.S, 72 h, read-out: IC50 (nM), proliferation inhibitory activity of MM.1S cells (half inhibitory concentration).
Take `O=C1CCC(N2C(=O)c3cccc(SCCCCCCCNC4CCCCC4)c3C2=O)C(=O)N1` (centres unmarked) [SIAIS1221175, 4-((7-(cyclohexylamino)heptyl)thio)-2-(2,6-dioxopiperidin-3-yl)isoindoline-1,3-dione]: the IC50 was determined as 0.938 nM.

For `CC1(C)[C@@H]2CC[C@@]1(C)[C@@H](NCCCCCCCSc1cccc3c1C(=O)N(C1CCC(=O)NC1=O)C3=O)C2` (stereo partly drawn) [SIAIS1221177, 2-(2,6-dioxopiperidin-3-yl)-4-((7-(((1R,2S,4R)-1,7,7-trimethylbicyclo[2.2.1]heptan-2-yl)amino)heptyl)thio)isoindoline-1,3-dione], the IC50 is 0.258 nM.

On to `O=C1CCC(N2C(=O)c3cccc(SCc4ccc(CNC56CC7CC(CC(C7)C5)C6)cc4)c3C2=O)C(=O)N1` (centres unmarked) [SIAIS1222013, 4-((4-(((adamantan-1-yl)amino)methyl)benzyl)thio)-2-(2,6-dioxopiperidin-3-yl)isoindoline-1,3-dione], for which the IC50 amounted to 0.621 nM.

As for `CN(CCCCCCCSc1cccc2c1C(=O)N(C1CCC(=O)NC1=O)C2=O)C12CC3CC(CC(C3)C1)C2` (centres unmarked) [SIAIS1222029, 4-((7-((adamantan-1-yl)(methyl)amino)heptyl)thio)-2-(2,6-dioxopiperidin-3-yl)isoindoline-1,3-dione], the IC50 was determined as 0.21 nM.

Regarding `O=C1CCC(N2C(=O)c3cccc(SCCCCCCNCC45CC6CC(CC(C6)C4)C5)c3C2=O)C(=O)N1` (centres unmarked) [SIAIS1222071, 4-((6-(((adamantan-1-yl)methyl)amino)hexyl)thio)-2-(2,6-dioxopiperidin-3-yl)isoindoline-1,3-dione], the IC50 was found to be 2.12 nM.

For the compound `O=C1CCC(N2Cc3c(SCCCCCCCNC4CC5(CCC5)C4)cccc3C2=O)C(=O)N1` (centres unmarked) [SIAIS1222077, 3-(1-oxo-4-((7-(spiro[3.3]heptan-2-ylamino)heptyl)thio)isoindolin-2-yl)piperidine-2,6-dione], the IC50 is 0.006 nM.

With `CC(C)(C)NCCCCCCCSc1cccc2c1CN(C1CCC(=O)NC1=O)C2=O` (centres unmarked) [SIAIS1222079, 3-(4-((7-(tert-butylamino)heptyl)thio)-1-oxoisoindolin-2-yl)piperidine-2,6-dione], the IC50 is 0.135 nM.

In the case of `O=C1CCC(N2Cc3c(SCc4ccc(CNCC56CC7CC(CC(C7)C5)C6)cc4)cccc3C2=O)C(=O)N1` (centres unmarked) [SIAIS1222085, 3-(4-((4-(((adamantan-1-ylmethyl)amino)methyl)benzyl)thio)-1-oxoisoindolin-2-yl)piperidine-2,6-dione], the IC50 turned out to be 0.029 nM.

As to `O=C1CCC(N2C(=O)c3cccc(SCCCCCNC45CC6CC(CC(C6)C4)C5)c3C2=O)C(=O)N1` (centres unmarked) [SIAIS1222097, 4-((5-((adamantan-1-yl)amino)pentyl)thio)-2-(2,6-dioxopiperidin-3-yl)isoindoline-1,3-dione], the IC50 stood at 0.409 nM.

With `CN(CCCCCCCSc1cccc2c1CN(C1CCC(=O)NC1=O)C2=O)C1CC1` (centres unmarked) [SIAIS1222103, 3-(4-((7-(cyclopropyl(methyl)amino)heptyl)thio)-1-oxoisoindolin-2-yl)piperidine-2,6-dione], the IC50 was 0.25 nM.

As for `O=C1CCC(N2Cc3c(SCCCCCCCNC4CC4)cccc3C2=O)C(=O)N1` (centres unmarked) [SIAIS1222105, 3-(4-((7-(cyclopropylamino)heptyl)thio)-1-oxoisoindolin-2-yl)piperidine-2,6-dione], the IC50 is 0.181 nM.

Regarding `O=C1CCC(N2Cc3c(SCCCCCCCN4C[C@H]5CCCC[C@H]5C4)cccc3C2=O)C(=O)N1` (stereo partly drawn) [SIAIS1222107, 3-(4-((7-((3aR,7aS)-hexahydro-1H-isoindol-2(3H)-yl)heptyl)thio)-1-oxoisoindolin-2-yl)piperidine-2,6-dione], the IC50 was 0.05 nM.

Regarding `O=C1CCC(N2C(=O)c3cccc(SCCCCCCNC45CC6CC(CC(C6)C4)C5)c3C2=O)C(=O)N1` (centres unmarked) [SIAIS1222109, 4-((6-((adamantan-1-yl)amino)hexyl)thio)-2-(2,6-dioxopiperidin-3-yl)isoindoline-1,3-dione], the IC50 is 0.404 nM.

As to `O=C1CCC(N2Cc3c(SCCCCCCCNC4CCC4)cccc3C2=O)C(=O)N1` (centres unmarked) [SIAIS1222115, 3-(4-((7-(cyclobutylamino)heptyl)thio)-1-oxoisoindolin-2-yl)piperidine-2,6-dione], the IC50 turned out to be 0.182 nM.

Regarding `O=C1CCC(N2Cc3c(SCCCCCCCNC4CCCC4)cccc3C2=O)C(=O)N1` (centres unmarked) [SIAIS1222117, 3-(4-((7-(cyclopentylamino)heptyl)thio)-1-oxoisoindolin-2-yl)piperidine-2,6-dione], the IC50 is 0.123 nM.

Take `O=C1CCC(N2Cc3c(SCCCCCCCNC45CC(C4)C5)cccc3C2=O)C(=O)N1` (centres unmarked) [SIAIS1222123, 3-(4-((7-(bicyclo[1.1.1]pentan-1-ylamino)heptyl)thio)-1-oxoisoindolin-2-yl)piperidine-2,6-dione]: the IC50 came out at 0.053 nM.

For `CC(NCCCCCCSc1cccc2c1CN(C1CCC(=O)NC1=O)C2=O)C12CC3CC(CC(C3)C1)C2` (centres unmarked) [SIAIS1222139, 3-(4-((6-((1-(adamantan-1-yl)ethyl)amino)hexyl)thio)-1-oxoisoindolin-2-yl)piperidine-2,6-dione], the IC50 is 0.131 nM.

On to `O=C1CCC(N2Cc3c(SCCCCCCCNC45CC6CC(CC(O)(C6)C4)C5)cccc3C2=O)C(=O)N1` (centres unmarked) [SIAIS1222141], for which the IC50 was 0.342 nM.

With `O=C1CCC(N2Cc3c(SCCCCCCNC(=O)C45CC6CC(CC(C6)C4)C5)cccc3C2=O)C(=O)N1` (centres unmarked) [SIAIS1222143, N-(6-((2-(2,6-dioxopiperidin-3-yl)-1-oxoisoindolin-4-yl)thio)hexyl)adamantane-1-carboxamide], the IC50 is 0.07 nM.

As to `O=C1CCC(N2Cc3c(SCCCCCCNC(=O)C45CC6CC(CC(Cl)(C6)C4)C5)cccc3C2=O)C(=O)N1` (centres unmarked) [SIAIS1222145, 3-chloro-N-(6-((2-(2,6-dioxopiperidin-3-yl)-1-oxoisoindolin-4-yl)thio)hexyl)adamantane-1-carboxamide], the IC50 amounted to 0.043 nM.

In the case of `O=C1CCC(N2Cc3c(SCCCCCCNCC4CCCCC4)cccc3C2=O)C(=O)N1` (centres unmarked) [SIAIS1222147, 3-(4-((6-((cyclohexylmethyl)amino)hexyl)thio)-1-oxoisoindolin-2-yl)piperidine-2,6-dione], the IC50 was 0.083 nM.

Regarding `CC(NCc1ccc(CSc2cccc3c2CN(C2CCC(=O)NC2=O)C3=O)cc1)C12CC3CC(CC(C3)C1)C2` (centres unmarked) [SIAIS1222157, 3-(4-((4-(((1-(adamantan-1-yl)ethyl)amino)methyl)benzyl)thio)-1-oxoisoindolin-2-yl)piperidine-2,6-dione], the IC50 came out at 0.04 nM.

Turning to `O=C1CCC(N2Cc3c(SCc4ccc(CNC5CC6(CCC6)C5)cc4)cccc3C2=O)C(=O)N1` (centres unmarked) [SIAIS1222159, 3-(1-oxo-4-((4-((spiro[3.3]heptan-2-ylamino)methyl)benzyl)thio)isoindolin-2-yl)piperidine-2,6-dione], the IC50 came out at 0.05 nM.

`O=C1CCC(N2Cc3c(SCc4ccc(CNC56CC(C5)C6)cc4)cccc3C2=O)C(=O)N1` (centres unmarked) [SIAIS1222161, 3-(4-((4-((bicyclo[1.1.1]pentan-1-ylamino)methyl)benzyl)thio)-1-oxoisoindolin-2-yl)piperidine-2,6-dione]: the IC50 was determined as 0.035 nM.

On to `O=C1CCC(N2Cc3c(SCCC45CC6CC(CC(C6)C4)C5)cccc3C2=O)C(=O)N1` (centres unmarked) [SIAIS1222173, 3-(4-((2-(adamantan-1-yl)ethyl)thio)-1-oxoisoindolin-2-yl)piperidine-2,6-dione], for which the IC50 is 0.42 nM.

For `O=C1CCC(N2Cc3c(SCCCNC45CC6CC(CC(C6)C4)C5)cccc3C2=O)C(=O)N1` (centres unmarked) [SIAIS1222177, 3-(4-((3-(adamantan-1-ylamino)propyl)thio)-1-oxoisoindolin-2-yl)piperidine-2,6-dione], the IC50 was 0.693 nM.

As to `O=C1CCC(N2Cc3c(SCCCCNC45CC6CC(CC(C6)C4)C5)cccc3C2=O)C(=O)N1` (centres unmarked) [SIAIS1222179, 3-(4-((4-((adamantan-1-yl)amino)butyl)thio)-1-oxoisoindolin-2-yl)piperidine-2,6-dione], the IC50 came out at 0.074 nM.

Regarding `O=C1CCC(N2Cc3c(SCc4ccc(CNCC5CCCCC5)cc4)cccc3C2=O)C(=O)N1` (centres unmarked) [SIAIS1222187, 3-(4-((4-(((cyclohexylmethyl)amino)methyl)benzyl)thio)-1-oxoisoindolin-2-yl)piperidine-2,6-dione], the IC50 was 0.005 nM.

Take `O=C1CCC(N2Cc3c(SCCCCCCCN4CCC5(CC4)CC5)cccc3C2=O)C(=O)N1` (centres unmarked) [SIAIS1222195, 3-(4-((7-(6-azaspiro[2.5]octan-6-yl)heptyl)thio)-1-oxoisoindolin-2-yl)piperidine-2,6-dione]: the IC50 worked out at 0.046 nM.

Turning to `O=C1CCC(N2Cc3c(SCCCCCCCNCC4CCCCC4)cccc3C2=O)C(=O)N1` (centres unmarked) [SIAIS1222199, 3-(4-((7-((cyclohexylmethyl)amino)heptyl)thio)-1-oxoisoindolin-2-yl)piperidine-2,6-dione], the IC50 amounted to 0.062 nM.

With `O=C1CCC(N2C(=O)c3cccc(SCCCCCCCNC4CC5(CCC5)C4)c3C2=O)C(=O)N1` (centres unmarked) [SIAIS1224015, 2-(2,6-dioxopiperidin-3-yl)-4-((7-(spiro[3.3]heptan-2-ylamino)heptyl)thio)isoindoline-1,3-dione], the IC50 amounted to 0.691 nM.

As to `O=C1CCC(N2Cc3c(SCc4ccc(CNCC5CCCCO5)cc4)cccc3C2=O)C(=O)N1` (centres unmarked) [SIAIS1224019, 3-(1-oxo-4-((4-((((tetrahydro-2H-pyran-2-yl)methyl)amino)methyl)benzyl)thio)isoindolin-2-yl)piperidine-2,6-dione], the IC50 turned out to be 0.048 nM.

On to `O=C1CCC(N2Cc3c(SCCCCCCCNC(C4CC4)C4CC4)cccc3C2=O)C(=O)N1` (centres unmarked) [SIAIS1224031, 3-(4-((7-((dicyclopropylmethyl)amino)heptyl)thio)-1-oxoisoindolin-2-yl)piperidine-2,6-dione], for which the IC50 was 0.105 nM.

In the case of `O=C1CCC(N2Cc3c(SCCCCCCCN4Cc5ccccc5C4)cccc3C2=O)C(=O)N1` (centres unmarked) [SIAIS1224033, 3-(4-((7-(isoindolin-2-yl)heptyl)thio)-1-oxoisoindolin-2-yl)piperidine-2,6-dione], the IC50 was determined as 0.082 nM.

As for `O=C1CCC(N2Cc3c(SCCCCCCCN[C@@H]4CN5CCC4CC5)cccc3C2=O)C(=O)N1` (stereo partly drawn) [SIAIS1224035, 3-(1-oxo-4-((7-(((S)-quinuclidin-3-yl)amino)heptyl)thio)isoindolin-2-yl)piperidine-2,6-dione], the IC50 was found to be 15.1 nM.
